This passage reports RP-LC retention time results from the METLIN SMRT retention time set (Domingo-Almenara et al. 2019).

This series can be described thus: gradient 5% acetonitrile 3 min, to 50% in 2 min, to 85% in 15 min, held 3 min, 100 µL/min. To be noted: column: Zorbax Extend-C18 2.1 x 50 mm; eluents: water / acetonitrile, 0.1% formic acid. In short, it runs like this:
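Retention times come from adduct peaks that were picked computationally and then checked by hand. The standards, pure and pooled in mixtures of ~100 molecules, were run on a Zorbax Extend-C18 column (2.1 × 50 mm, 1.8 μm) at 100 μL/min with water and acetonitrile, each with 0.1% formic acid. Detection was by quadrupole time-of-flight mass spectrometry in positive and negative ionization mode, with a dead volume of 40 μL and a dwell volume of 900 μL.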
Regarding `COc1ccccc1OCC1c2ccsc2CCN1C(=O)CN(CC1CC1)C(=O)C(C)C` (stereo not given), the RP-LC retention time came to 947 s.
Regarding `Cc1nn(-c2nc3ccccc3[nH]2)c2c1C(=O)CC(c1cccs1)C2` (stereo not given), the RP-LC retention time worked out at 967 s.
The same measure for `CCc1ccc(NC(=O)N2CCC(c3nc(C(=O)N(C)C)c(C)o3)CC2)cc1`: 769 s; for `Cc1ccc(C)c(-c2cc3c4nn(CC(=O)NCc5ccco5)c(=O)n4ccn3n2)c1`: 883 s; for `Cc1ccc(-c2cc(-c3cc(-c4ccc(C)cc4C)n[nH]3)[nH]n2)c(C)c1`: 1070 s.
Compound `Cc1ccc(C)c(NC(=O)Cn2c(=O)cc(-c3nc(C)no3)c3ccccc32)c1` gave an RP-LC retention time of 910 s.
As to `CCn1nc(C)c2ccnc(N3CCC(C(=O)N4CCN(c5ccc(Cl)cc5)CC4)CC3)c21`, the RP-LC retention time came out at 780 s.
Compound `CCCn1ccc2sc(C)c(C(=O)NCCOC)c2c1=O` displayed an RP-LC retention time of 652 s.
In turn, `COc1ccc(NC(=O)N2C[C@@H](F)C[C@H]2C(=O)N2CCc3ccccc3C2)cc1OC` showed an RP-LC retention time of 732 s.
As for `Cc1ccc(C(=O)NC2CCN(c3ccccc3)C2=O)cc1F` (stereo not given), the RP-LC retention time stood at 823 s.
For `Cc1onc(-c2ccccc2Cl)c1C(=O)NCCn1nc(-c2ccccc2)n(C)c1=O`, the RP-LC retention time amounted to 708 s.
`O=S(=O)(c1ccc(-c2cnc(C3CCCC3)o2)s1)N1CCN(c2ccccn2)CC1` yielded an RP-LC retention time of 842 s.
Compound `Cc1cc(C)c(S(=O)(=O)N2CCC(c3cc4n(n3)CCCN(C)C4=O)CC2)cc1C` showed an RP-LC retention time of 888 s.
Take `CCOc1ccccc1NC(=O)Cn1cnc2nc(N3CCC(C(=O)NC4CC4)CC3)sc2c1=O`: the RP-LC retention time is 696 s.
The same measure for `CCS(=O)(=O)c1ccc(CC(=O)Nc2ccc(F)cc2F)cc1`: 711 s; for `O=C(NCc1ccc(Br)cc1)C1CCCN(c2ccnc(-c3ccc(F)cc3)n2)C1` (stereo not given): 730 s.
`CC(C)CC(=O)Nc1ccc(S(=O)(=O)N2CCC(c3ccncc3)CC2)cc1` had an RP-LC retention time of 616 s.
`Cc1ccc(-n2c(=O)c3sccc3n(Cc3nc(-c4cccc(C(F)(F)F)c4)no3)c2=O)cc1` showed an RP-LC retention time of 1100 s.
For the compound `Cc1ccc2c(c1)OCC(=O)N2Cc1nc(-c2cccc(Cl)c2)no1`, the RP-LC retention time amounted to 1160 s.
The same measure for `Cc1ccc(C)c(NC(=O)N2CCCC(C)(C(=O)NCc3ccccc3)C2)c1` (stereo not given): 967 s.
Consider `COC(CNC(=O)C1CCN(C(=O)c2ncn3c2COC(c2ccc(F)cc2)C3)CC1)OC` (stereo not given), for which the RP-LC retention time came out at 674 s.
`O=c1oc2c(O)c(O)ccc2c2c1CCC2` showed an RP-LC retention time of 655 s.
`O=C(NC1CC1)c1ccc(OCC2CCN(C(=O)c3ccc(F)cc3Cl)CC2)cc1` gave an RP-LC retention time of 837 s.
In turn, `COCCOC1CN(C2CCN(C(=O)Nc3ccccc3)CC2)C12CCCCC2` (stereo not given) had an RP-LC retention time of 641 s.
The compound `CC1CS(=O)(=O)N(c2cccc(C(=O)N3CCN(c4ccccc4F)CC3)c2)C1=O` (stereo not given) showed an RP-LC retention time of 790 s.
The same measure for `COc1ccc(S(=O)(=O)N2C[C@@H]3C[C@H]2C[C@@H]3NC(=O)c2ccccc2)cc1Cl`: 861 s; for `Cc1cc(Nc2ncccc2S(N)(=O)=O)ccc1Cl`: 908 s.
With `Cc1ccc(-c2cn3c(CC(=O)NC4CCCCCC4)csc3n2)cc1C`, the RP-LC retention time was 894 s.
The same measure for `CCc1noc(NC(C)=O)c1-c1ccc(C)c(S(=O)(=O)NCc2ccccc2)c1`: 836 s; for `Cc1ccc(S(=O)(=O)N2CCC(C(=O)NCc3csc(-c4cccs4)n3)CC2)c(C)c1`: 977 s; for `CCOc1ccc(C2c3[nH]c4ccccc4c3CCN2C(=O)Cc2cccs2)cc1` (stereo not given): 1190 s.
For the compound `O=C1CCCc2cc(S(=O)(=O)N3CCC(C(=O)Nc4cccc(F)c4)CC3)ccc2N1`, the RP-LC retention time was 770 s.
The compound `CCn1c(CNC(=O)C2CCC2)nc2c1CN(S(=O)(=O)c1ccc(C)cc1)CC2` came in with an RP-LC retention time of 649 s.
Regarding `COc1ccc(N2CC(NC(=O)NCCC3=CCCCC3)CC2=O)cc1` (stereo not given), the RP-LC retention time was 731 s.
As to `CCCc1nnc(SCC(=O)NC2CCCCCC2)n1-n1cccc1`, the RP-LC retention time worked out at 831 s.
`Cc1cccc(CN2N=C(C(=O)N3CCC(C)CC3)S(=O)(=O)c3ccccc32)c1`: the RP-LC retention time was determined as 1090 s.
Consider `COc1cc(-c2noc(Cc3nnc(-c4ccc(F)cc4)o3)n2)cc(OC)c1OC`, for which the RP-LC retention time amounted to 916 s.
The compound `CCn1cc(S(=O)(=O)Nc2ccc(F)c(F)c2)c2cccnc21` showed an RP-LC retention time of 848 s.
In turn, `COc1ccc(C(=O)N2CCc3ccc(CNC(=O)NCC4CCCO4)cc32)cc1` (stereo not given) yielded an RP-LC retention time of 712 s.
As for `CC(C)n1c(CN2CCOCC2)nc2cc(NC(=O)c3cccs3)ccc21`, the figure is 640 s; as for `CCC(=O)N1CCc2cc(C(=O)N3CCOCC3)ccc21`, 637 s.
`CCc1nncn1C1CCN(C(=O)c2cc(F)ccc2Cl)CC1`: the RP-LC retention time stood at 628 s.
Consider `CCCn1c(C2CCN(C(=O)c3sccc3C)C2)nc2cccnc21` (stereo not given), for which the RP-LC retention time was 716 s.
Consider `CCOC(=O)C1CCCN(C(=O)C2CCN(c3cc(N4CCCCC4)ncn3)CC2)C1` (stereo not given), for which the RP-LC retention time is 666 s.
Compound `O=C(Nc1ccccc1Br)N1CCc2nc(-c3ccccc3)ncc2C1` registered an RP-LC retention time of 964 s.
Consider `CC(C)(C)n1nnnc1C1CC2(CCOCC2)C(=O)N1Cc1ccccc1` (stereo not given), for which the RP-LC retention time worked out at 769 s.
In the case of `CC1(C(=O)NCc2ccc(F)cc2)CCCN(C(=O)NCc2ccco2)C1` (stereo not given), the RP-LC retention time came to 765 s.
As for `COc1cc(Cl)c(C)cc1NC(=O)C1CCN(c2c(C(=O)N3CCOCC3)cnc3snc(C)c23)CC1`, the RP-LC retention time turned out to be 945 s.
Turning to `CCNC(=O)c1cc(-c2ccc(F)cc2)n[nH]1`, the RP-LC retention time stood at 695 s.
`COc1cc(OC)c(NC(=O)Cn2nc3c(cc2=O)CCCC3)cc1Cl` showed an RP-LC retention time of 719 s.
`COc1ccc(Cl)cc1N1CC(c2nc(-c3ccccc3F)no2)CC1=O` (stereo not given): the RP-LC retention time was 943 s.
With `Cn1cc(C(=O)NC2CCCCC2)c2cccnc21`, the RP-LC retention time amounted to 726 s.
The same measure for `COc1ccc(Cl)cc1NC(=O)CSc1ccc(NC(=O)c2ccco2)nn1`: 851 s; for `Cc1nn(-c2ccc(-c3ccccc3)nn2)c(C)c1S(=O)(=O)NCCC(C)C`: 1130 s; for `COCCn1cc(C(=O)NC2CCCCC2)c2nn(-c3ccccc3)c(=O)c-2c1`: 925 s.
As for `Cc1cc(=O)n(CC(=O)Nc2ccc(F)c(Cl)c2)c(N2CCOCC2)n1`, the figure is 677 s.
As to `O=C(NC1CC1)c1nc(-c2ccncc2)cs1`, the RP-LC retention time was 574 s.
Take `O=C(c1cccs1)N1CCCC(c2nn[nH]n2)C1` (stereo not given): the RP-LC retention time stood at 627 s.
In turn, `CN(C)c1ccc(CNC(=O)C2CCN(S(=O)(=O)c3ccc4c(c3)CCCC(=O)N4)CC2)cc1` had an RP-LC retention time of 607 s.
On to `CCn1cnc(S(=O)(=O)N2CCC(C(=O)NCc3ccc(Br)cc3)CC2)c1`, for which the RP-LC retention time stood at 747 s.
As for `Cc1ccc(S(=O)(=O)c2cnc(N3CCN(c4cccc(C)c4)CC3)nc2N)cc1`, the figure is 1130 s; as for `CCN1CCN(c2ccc(NC(=O)c3ccc(C(F)(F)F)cc3)cn2)C1=O`, 823 s; as for `CCNC(=O)c1nc(C(=O)NCc2ccc(F)c(Cl)c2)cs1`, 819 s.
In turn, `COc1ccccc1CNC(=O)C1CCC(=O)N1S(=O)(=O)c1ccc(C)c(C)c1` (stereo not given) returned an RP-LC retention time of 913 s.
Compound `Cn1c(=O)c(C(=O)NC2CCN(Cc3ccccc3)CC2)nc2cccnc21` came in with an RP-LC retention time of 574 s.
For `Cc1cc(C)cc(NC(=O)C2CCCN2S(=O)(=O)c2ccc3c(c2)CCCC(=O)N3)c1` (stereo not given), the RP-LC retention time was determined as 835 s.
The compound `O=C(Nc1nc(-c2ccccc2)cs1)c1ccc(COc2ccc(Cl)cc2Cl)o1` displayed an RP-LC retention time of 1280 s.
For the compound `O=C(Nc1cccc(F)c1)C1(CCO)CCN(c2ncccn2)C1` (stereo not given), the RP-LC retention time was found to be 639 s.
`O=C(Cn1nc2c3ccc(F)cc3ncn2c1=O)Nc1ccc2c(c1)OCO2` gave an RP-LC retention time of 707 s.
`CCOC(=O)c1noc2ncnc(NCc3cccc(OC)c3)c12`: the RP-LC retention time worked out at 971 s.
As to `CCc1nc2cc(-c3noc(Cc4ccc(C)cc4)n3)ccc2o1`, the RP-LC retention time is 1160 s.
`Cc1cc(/C=C2\SC(=S)NC2=O)cc(C)c1O`: the RP-LC retention time was found to be 906 s.
`Cn1cnc(S(=O)(=O)N2CCCC(c3nnnn3-c3ccccc3)C2)c1` (stereo not given): the RP-LC retention time amounted to 690 s.
In turn, `CCC(C)NC(=O)c1cn(CCOC)cc2c(=O)n(-c3ccccc3)nc1-2` (stereo not given) showed an RP-LC retention time of 819 s.
`Cc1noc2nc(C)n(CC(=O)NCC(C)c3ccccc3)c(=O)c12` (stereo not given) came in with an RP-LC retention time of 782 s.
For the compound `Cc1cccc(CNC(=O)CN2C(=O)C3CCCCN3c3ccc(S(=O)(=O)N(C)C)cc32)c1` (stereo not given), the RP-LC retention time was 932 s.
The same measure for `CCc1nc(-c2cccc(-c3noc(COc4ccc(OC)cc4)n3)c2)cs1`: 1270 s; for `Cc1ccc2[nH]cc(CCNC(=O)c3c(-c4ccccn4)noc3C)c2c1`: 964 s.
Take `O=C(NCCc1noc(C2CC2)n1)c1ccoc1`: the RP-LC retention time was determined as 664 s.
Consider `CC1=C(c2ccc(F)cc2)S(=O)(=O)N=C1N1CCCN(C(=O)CC(C)(C)C)CC1`, for which the RP-LC retention time was determined as 856 s.
